Reference: patent US20260053861A1, “CELL COMPOSITIONS AND METHODS OF USING THE SAME” (THE REGENTS OF THE UNIVERSITY OF CALIFORNIA, priority 2022, published 2026)
Structures can show the parent of a compound that is named as a salt.

tested on: hPSC-SCs; settings: not given

Going from COc1ccc2[nH]c3c(c2c1)CCN=C3C [Methoxy-6-harmalan] to Cc1ccsc1/C=C/C1=NCCCN1C [Morantel tartrate], the z.score.t rises from −0.1216 to −0.06439.

Going from Cc1cc(C(C)(C)CC(C)(C)C)ccc1OCCOCC[N+](C)(C)Cc1ccccc1.[Cl-] [Methyl benzethonium chloride] to CN(C)C(=O)Oc1cccc([N+](C)(C)C)c1 [Neostigmine bromide], the z.score.t rises from −1.169 to 1.018.

Compared with CC[C@@H](CO)NC(=O)[C@@H]1C=C2c3cccc4[nH]cc(c34)C[C@H]2N(C)C1 [Methylergometrine maleate], Oc1ccc2c3c1O[C@H]1[C@@H](O)CC[C@@]4(O)[C@@H](C2)N(CC2CCC2)CC[C@]314 [Nalbuphine hydrochloride] is lower in z.score.t: 1.669 for the first, 0.1298 for the second.

Compared with C[C@H]1NC(=O)NC1=O [Methylhydantoin-5-(D)], C[C@@H]1NC(=O)NC1=O [Methylhydantoin-5-(L)] is higher in z.score.t: −0.9395 for the first, 1.101 for the second.

Compared with C[C@H]1C(=O)O[C@@H]2CCN3CC=C(COC(=O)[C@](C)(O)[C@]1(C)O)[C@H]23 [Monocrotaline], C[C@]12CC[C@H]3[C@@H](CCC4=CC(=O)CC[C@@H]43)[C@@H]1CC[C@@H]2O [Nandrolone] is higher in z.score.t: 0.5046 for the first, 1.306 for the second.

First: c1cncc(C2=NCCC2)c1 [Myosmine]
Second: C=C1[C@H]2C[C@@]3([C@@H]1O)[C@@H](C[C@@H]2O)[C@]12[C@@H]4C[C@H]3[C@H]1N(CC)C[C@]4(C)CC[C@@H]2O [Napelline]
The z.score.t of the first is lower: 0.9865 for the first, 1.178 for the second.

same assay, conditions: HTS viability of hPSC-SCs in the presence of 30 mM glucose; Prestwick library; Table S4

First: CSc1ccc2c(c1)C(N1CCN(C)CC1)Cc1ccccc1S2.O=C(O)/C=C\C(=O)O (stereo not shown) [Methiothepin maleate]
Second: COc1ccc2c(c1)N(C[C@H](C)CN(C)C)c1ccccc1S2.O=C(O)/C=C\C(=O)O [Methotrimeprazine maleat salt]
The z.score.t of the first is higher: −0.8821 for the first, −1.008 for the second.

Going from COc1ccccc1OCC(O)COC(N)=O (stereo not shown) [Methocarbamol] to COc1ccccc1N1CCN(CC(O)COc2cccc3ccccc23)CC1 (stereo not shown) [Naftopidil dihydrochloride], the z.score.t rises from −1.392 to −0.9264.

Going from CN(Cc1cnc2nc(N)nc(N)c2n1)c1ccc(C(=O)N[C@@H](CCC(=O)O)C(=O)O)cc1 [Methotrexate] to CO[C@@]1(NC(=O)C(C(=O)O)c2ccc(O)cc2)C(=O)N2C(C(=O)O)=C(CSc3nnnn3C)CO[C@@H]21 (stereo partly shown) [Moxalactam disodium salt], the z.score.t falls from 0.8875 to 0.4105.

Compared with COc1ccc(OC)c(C(O)C(C)N)c1 (stereo not shown) [Methoxamine hydrochloride], COc1ccc(OC)c(C(O)CNC(=O)CN)c1 (stereo not shown) [Midodrine hydrochloride] is lower in z.score.t: 1.064 for the first, 0.5856 for the second.

Going from COc1c2occc2cc2ccc(=O)oc12 [Methoxy-8-psoralen] to COc1ccc2cc([C@H](C)C(=O)O)ccc2c1 [Naproxen], the z.score.t rises from 1.124 to 1.745.

Going from C[N+]1(C)[C@@H]2CC[C@H]1C[C@@H](OC(=O)C(CO)c1ccccc1)C2 (stereo partly shown) [Methylatropine nitrate] to CCN(CC)CCOC(=O)C(Cc1cccc2ccccc12)CC1CCCO1 (stereo not shown) [Nafronyl oxalate], the z.score.t rises from 1.238 to 2.094.

First: C[C@](N)(Cc1ccc(O)c(O)c1)C(=O)O [Methyldopa (L, −)]
Second: CCOC(=O)[C@@](C)(N)Cc1ccc(O)c(O)c1 [Methyldopate hydrochloride]
The z.score.t of the first is higher: 0.006455 for the first, −0.8464 for the second.

First: C[C@H]1C[C@@H]2[C@H]([C@@H](O)C[C@@]3(C)[C@H]2CC[C@]3(O)C(=O)CO)[C@@]2(C)C=CC(=O)C=C12 [Methylprednisolone, 6-alpha]
Second: C[C@@H]1C[C@H]2[C@@H]3CCC4=CC(=O)C=C[C@]4(C)[C@@]3(Cl)[C@@H](O)C[C@]2(C)[C@@]1(OC(=O)c1ccco1)C(=O)CCl [Mometasone furoate]
The z.score.t of the first is higher: 0.7665 for the first, 0.1979 for the second.

Going from Cc1cc2c(cc1S(N)(=O)=O)S(=O)(=O)CCC2 [Meticrane] to Cc1ccccc1N1C(=O)c2cc(S(N)(=O)=O)c(Cl)cc2NC1C (stereo not shown) [Metolazone], the z.score.t rises from −0.3156 to 0.3637.

Compared with CN1CCCC(CC2c3ccccc3Sc3ccccc32)C1 (stereo not shown) [Metixene hydrochloride], CN1CCN2c3ccccc3Cc3ccccc3C2C1 (stereo not shown) [Mianserine hydrochloride] is higher in z.score.t: −0.9654 for the first, 0.8279 for the second.

Going from CCN(CC)CCNC(=O)c1cc(Cl)c(N)cc1OC [Metoclopramide monohydrochloride] to CC(=O)Oc1cc(C(C)C)c(OCCN(C)C)cc1C.Cl [Moxisylyte hydrochoride], the z.score.t falls from 1.024 to 0.8757.

First: CC(=O)Nc1c(I)c(C(=O)N[C@H]2C(O)O[C@H](CO)[C@@H](O)[C@@H]2O)c(I)c(N(C)C(C)=O)c1I (stereo partly shown) [Metrizamide]
Second: C[C@@H]1O[C@@H](O[C@H]2[C@H](Oc3cc(O)c4c(c3)O[C@H](c3ccc(O)cc3)CC4=O)O[C@H](CO)[C@@H](O)[C@@H]2O)[C@H](O)[C@H](O)[C@H]1O [Naringin hydrate]
The z.score.t of the first is lower: 1.421 for the first, 1.659 for the second.

Going from Cc1ncc([N+](=O)[O-])n1CCO [Metronidazole] to CNc1ncnc2c1ncn2[C@@H]1O[C@H](CO)[C@@H](O)[C@H]1O [N6-methyladenosine], the z.score.t falls from 1.259 to 1.002.

Going from CC(C)(C(=O)c1cccnc1)c1cccnc1 [Metyrapone] to O=C(O)c1cccnc1 [Niacin], the z.score.t falls from 1.178 to 0.4105.

Compared with C[C@@]1(O)CCOC(=O)C1 [Mevalonic-D, L acid lactone], C=CCN1CC[C@]23c4c5ccc(O)c4O[C@H]2C(=O)CC[C@@]3(O)[C@H]1C5 [Naloxone hydrochloride] is higher in z.score.t: 0.2361 for the first, 0.84 for the second.

First: Cc1cccc(C)c1OCC(C)N (stereo not shown) [Mexiletine hydrochloride]
Second: CC(C)(C)NCC(O)COc1cccc2c1CC(O)C(O)C2 (stereo not shown) [Nadolol]
The z.score.t of the first is lower: 0.6648 for the first, 0.7349 for the second.

Going from Clc1ccc(COC(Cn2ccnc2)c2ccc(Cl)cc2Cl)c(Cl)c1 (stereo not shown) [Miconazole] to c1ccc2c(CC3=NCCN3)cccc2c1 [Naphazoline hydrochloride], the z.score.t rises from −1.873 to 0.7665.

First: CC#C[C@]1(O)CC[C@H]2[C@@H]3CCC4=CC(=O)CCC4=C3[C@@H](c3ccc(N(C)C)cc3)C[C@@]21C [Mifepristone]
Second: O=C1CC[C@@]2(O)[C@H]3Cc4ccc(O)c5c4[C@@]2(CCN3CC2CC2)[C@H]1O5 [Naltrexone hydrochloride dihydrate]
The z.score.t of the first is lower: −0.8392 for the first, 0.754 for the second.

Compared with Cc1[nH]c(=O)c(C#N)cc1-c1ccncc1 [Milrinone], O=C(CCNNC(=O)c1ccncc1)NCc1ccccc1 [Nialamide] is lower in z.score.t: 0.3236 for the first, −0.7018 for the second.

First: NC(Cn1ccc(=O)c(O)c1)C(=O)O (stereo not shown) [Mimosine]
Second: CC1CCc2c(N3CCC(O)CC3)c(F)cc3c(=O)c(C(=O)O)cn1c23 (stereo not shown) [Nadifloxacin]
The z.score.t of the first is higher: 0.7491 for the first, −0.9598 for the second.

First: Cc1cc(-c2ccccc2)nnc1NCCN1CCOCC1 [Minaprine dihydrochloride]
Second: CCOC(=O)Nc1ccc2c(c1)N(C(=O)CCN1CCOCC1)c1ccccc1S2 [Moricizine hydrochloride]
The z.score.t of the first is lower: −0.5003 for the first, 0.0827 for the second.

First: CN(C)c1ccc(O)c2c1C[C@H]1C[C@H]3[C@H](N(C)C)C(O)=C(C(N)=O)C(=O)[C@@]3(O)C(O)=C1C2=O [Minocycline hydrochloride]
Second: O=C1C[C@@H](c2ccc(O)cc2)Oc2cc(O)cc(O)c21 [Naringenine]
The z.score.t of the first is lower: −1.319 for the first, 1.539 for the second.

Compared with Nc1cc(N2CCCCC2)nc(N)[n+]1[O-] [Minoxidil], CCOC(=O)[N-]c1cn(N2CCOCC2)n[o+]1 [Molsidomine] is higher in z.score.t: 0.2479 for the first, 0.713 for the second.

Going from O=C1c2c(O)ccc(O)c2C(=O)c2c(NCCNCCO)ccc(NCCNCCO)c21 [Mitoxantrone dihydrochloride] to O=c1c(O)c(-c2cc(O)c(O)c(O)c2)oc2cc(O)cc(O)c12 [Myricetin], the z.score.t rises from −0.3936 to 0.713.

Going from O=C(NCCN1CCOCC1)c1ccc(Cl)cc1 [Moclobemide] to CCc1c(C)[nH]c2c1C(=O)C(CN1CCOCC1)CC2 (stereo not shown) [Molindone hydrochloride], the z.score.t falls from 0.5822 to −0.1759.

Going from CC[C@@]1([C@@H]2O[C@@H]([C@H]3O[C@@](O)(CO)[C@H](C)C[C@@H]3C)C[C@@H]2C)CC[C@H]([C@]2(C)CC[C@]3(C[C@H](O)[C@@H](C)[C@@H]([C@@H](C)[C@@H](OC)[C@H](C)C(=O)O)O3)O2)O1 [Monensin sodium salt] to NC[C@@H]1O[C@H](O[C@H]2[C@@H](O)[C@H](O[C@@H]3[C@@H](O)[C@H](N)C[C@H](N)[C@H]3O[C@H]3O[C@H](CN)[C@@H](O)[C@H](O)[C@H]3N)O[C@@H]2CO)[C@H](N)[C@@H](O)[C@@H]1O.O=S(=O)(O)O [Neomycin sulfate], the z.score.t rises from −2.299 to −0.6492.

Going from Oc1ccc(OCc2ccccc2)cc1 [Monobenzone] to CN1CCOC(c2ccccc2)c2ccccc2C1 (stereo not shown) [Nefopam hydrochloride], the z.score.t falls from 0.557 to −0.3733.

Going from Cl.N=C(N=C(N)N)N1CCOCC1 [Moroxidine hydrochloride] to COc1c(C)c2c(c(O)c1C/C=C(\C)CCC(=O)O)C(=O)OC2 [Mycophenolic acid], the z.score.t falls from 1.464 to −0.7775.

Compared with COc1nc(C)nc(Cl)c1N=C1NCCN1 [Moxonidine], COc1ccc2cc(CCC(C)=O)ccc2c1 [Nabumetone] is higher in z.score.t: −0.133 for the first, 0.5365 for the second.

Going from CC(=O)N[C@@H](CC(C)C)C(=O)O [N-Acetyl-L-leucine] to CCOc1ccc2ccccc2c1C(=O)N[C@@H]1C(=O)N2[C@@H]1SC(C)(C)[C@@H]2C(=O)O [Nafcillin sodium salt monohydrate], the z.score.t rises from 0.2361 to 1.323.

First: NC(=O)c1ccc[n+]([C@@H]2O[C@H](COP(=O)([O-])OP(=O)(O)OC[C@H]3O[C@@H](n4cnc5c(N)ncnc54)[C@H](O)[C@@H]3O)[C@@H](O)[C@H]2O)c1 [Nadide]
Second: COC(=O)C1=C(C)NC(C)=C(C(=O)OCCN(C)Cc2ccccc2)C1c1cccc([N+](=O)[O-])c1 (stereo not shown) [Nicardipine hydrochloride]
The z.score.t of the first is higher: 0.453 for the first, 0.2189 for the second.

First: CN(C/C=C/c1ccccc1)Cc1cccc2ccccc12 [Naftifine hydrochloride]
Second: CO[C@]12C[C@@H](COC(=O)c3cncc(Br)c3)CN(C)[C@@H]1Cc1cn(C)c3cccc2c13 [Nicergoline]
The z.score.t of the first is lower: −1.168 for the first, −0.2131 for the second.
